Assay: Compound was evaluated for the inhibition of L-pipecolate oxidase(LPO) isolated from frozen Rhesus monkey liver

## O=C(O)[C@H]1NC[C@@H]2O[C@@H]21 [(1R,2S,5S)-6-Oxa-3-aza-bicyclo[3.1.0]hexane-2-carboxylic acid]
  IC50: 200 µM

From BindingDB's records for doi:10.1016/s0960-894x(98)00106-1 (Oregon State University, 1999)
